Data on twelve compounds can be found in patent publication US10858362B2, “Imidazopyrazinones as PDE1 inhibitors” (H. Lundbeck A/S, priority 2015, dated 2020).

SMILES strings stand for the structures.

Common to all, as to type: biochemical
One experiment concerns the target PDE1C (Homo sapiens (Human), UniProt Q14123). Kind of experiment: PDE1 inhibition assay, PDE1C. The following applies: 15 nM tritium labelled cAMP. Here is the method: (§1) Reactions were initiated by addition of the cyclic nucleotide substrate, and reactions were allowed to proceed for 1 h at room temperature before being terminated through mixing with 20 μL (0.2 mg) yttrium silicate SPA beads (PerkinElmer). The beads were allowed to settle for 1 h in the dark before the plates were counted in a Wallac 1450 Microbeta counter.

For a further experiment, the target named is PDE9 (Homo sapiens (Human), UniProt O76083). The experiment can be described thus: PDE9 inhibition assay. Put shortly: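 Human PDE9 in 50 mM HEPES pH 7.6, 10 mM MgCl2, 0.02% Tween20, enzyme set to convert 20-25% of 10 nM ^3H-cAMP substrate; inhibitors at varying amounts. 1 hr incubation, stopped with yttrium silicate SPA beads, settled 1 hr in dark, then scintillation counted.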

The target in the next experiment is PDE1A (Homo sapiens (Human), UniProt P54750). The experiment can be described thus: PDE1 inhibition assay, PDE1A. The settings on record: for IC50: 15 nM tritium labelled cAMP. Here is the method:
Reactions were initiated by addition of the cyclic nucleotide substrate, and reactions were allowed to proceed for 1 h at room temperature before being terminated through mixing with 20 μL (0.2 mg) yttrium silicate SPA beads (PerkinElmer).

A further experiment concerns the target PDE1B (Homo sapiens (Human), UniProt Q01064). The experiment can be described thus: PDE1 inhibition assay, PDE1B. The settings on record: 15 nM tritium labelled cAMP. As for the experimental part: as §1

PDE1C, sequence (Q14123 whole entry): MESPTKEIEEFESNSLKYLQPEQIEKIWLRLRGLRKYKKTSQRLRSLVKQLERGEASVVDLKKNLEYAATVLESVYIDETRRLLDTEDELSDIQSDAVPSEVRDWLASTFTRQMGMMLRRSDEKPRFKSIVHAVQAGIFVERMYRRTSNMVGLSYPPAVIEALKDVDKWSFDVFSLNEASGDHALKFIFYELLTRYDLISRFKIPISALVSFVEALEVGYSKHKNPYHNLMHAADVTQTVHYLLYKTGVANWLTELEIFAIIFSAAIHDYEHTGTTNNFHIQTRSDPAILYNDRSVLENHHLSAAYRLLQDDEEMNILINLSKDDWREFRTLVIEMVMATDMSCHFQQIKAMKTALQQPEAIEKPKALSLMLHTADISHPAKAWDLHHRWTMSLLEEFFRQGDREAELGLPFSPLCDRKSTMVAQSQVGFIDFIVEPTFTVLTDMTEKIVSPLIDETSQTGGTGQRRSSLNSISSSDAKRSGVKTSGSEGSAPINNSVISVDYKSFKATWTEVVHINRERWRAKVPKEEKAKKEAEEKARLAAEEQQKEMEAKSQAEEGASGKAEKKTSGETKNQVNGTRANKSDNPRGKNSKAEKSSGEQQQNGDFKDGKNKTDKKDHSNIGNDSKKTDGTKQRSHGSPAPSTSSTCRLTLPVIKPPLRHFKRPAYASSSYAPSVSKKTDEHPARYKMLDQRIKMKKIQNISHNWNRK
PDE9, sequence (O76083 whole entry): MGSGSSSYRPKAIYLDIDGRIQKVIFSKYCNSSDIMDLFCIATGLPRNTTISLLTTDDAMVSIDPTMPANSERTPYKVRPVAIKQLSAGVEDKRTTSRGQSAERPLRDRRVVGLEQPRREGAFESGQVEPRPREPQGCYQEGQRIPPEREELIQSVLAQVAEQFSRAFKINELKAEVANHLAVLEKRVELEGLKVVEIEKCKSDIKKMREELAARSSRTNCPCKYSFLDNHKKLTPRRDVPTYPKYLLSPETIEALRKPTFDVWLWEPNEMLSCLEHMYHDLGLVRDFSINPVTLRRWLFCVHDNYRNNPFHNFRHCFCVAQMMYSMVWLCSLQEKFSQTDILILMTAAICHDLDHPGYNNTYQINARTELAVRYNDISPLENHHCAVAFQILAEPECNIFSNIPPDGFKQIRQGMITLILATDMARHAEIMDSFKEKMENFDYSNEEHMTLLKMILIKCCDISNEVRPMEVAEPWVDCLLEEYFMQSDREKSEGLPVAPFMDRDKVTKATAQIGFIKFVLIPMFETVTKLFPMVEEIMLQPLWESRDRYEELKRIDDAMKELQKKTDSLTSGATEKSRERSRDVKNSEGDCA
PDE1A, sequence (P54750 whole entry): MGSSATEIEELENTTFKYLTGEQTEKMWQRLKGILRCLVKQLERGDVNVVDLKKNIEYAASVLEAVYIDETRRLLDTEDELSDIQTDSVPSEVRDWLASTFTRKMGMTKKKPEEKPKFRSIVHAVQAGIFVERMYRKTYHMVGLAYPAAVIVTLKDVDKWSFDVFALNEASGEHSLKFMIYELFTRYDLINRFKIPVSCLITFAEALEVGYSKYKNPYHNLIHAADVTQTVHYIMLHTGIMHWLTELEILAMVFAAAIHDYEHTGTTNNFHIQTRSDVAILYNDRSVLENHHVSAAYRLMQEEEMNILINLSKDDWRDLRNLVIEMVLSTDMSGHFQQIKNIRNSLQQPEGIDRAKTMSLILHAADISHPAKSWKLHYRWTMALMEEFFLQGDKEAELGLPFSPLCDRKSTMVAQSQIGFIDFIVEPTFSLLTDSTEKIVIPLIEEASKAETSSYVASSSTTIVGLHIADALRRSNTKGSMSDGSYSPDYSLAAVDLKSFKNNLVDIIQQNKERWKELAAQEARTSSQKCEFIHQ
PDE1B, sequence (Q01064 whole entry): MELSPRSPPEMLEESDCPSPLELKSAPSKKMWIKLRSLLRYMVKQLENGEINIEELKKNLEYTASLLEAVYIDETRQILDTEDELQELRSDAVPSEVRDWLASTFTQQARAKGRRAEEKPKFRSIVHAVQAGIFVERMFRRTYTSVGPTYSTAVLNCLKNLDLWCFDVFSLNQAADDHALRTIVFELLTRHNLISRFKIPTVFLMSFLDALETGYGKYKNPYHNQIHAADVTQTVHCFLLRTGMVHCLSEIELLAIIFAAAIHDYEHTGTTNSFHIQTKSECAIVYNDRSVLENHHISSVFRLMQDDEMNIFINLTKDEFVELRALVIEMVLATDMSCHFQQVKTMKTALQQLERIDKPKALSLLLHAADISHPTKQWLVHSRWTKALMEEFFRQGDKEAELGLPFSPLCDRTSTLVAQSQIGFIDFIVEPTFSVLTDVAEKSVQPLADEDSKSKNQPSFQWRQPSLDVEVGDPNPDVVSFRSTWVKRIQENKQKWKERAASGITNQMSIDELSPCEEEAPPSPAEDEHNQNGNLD

With `COc1ccc(Cn2c(C)cn3c(C4CC(C)OC(C)C4)ncc3c2=O)cc1` (stereo not drawn) [Example 84, 3-(2,6-dimethyltetrahydro-2H-pyran-4-yl)-7-(4-methoxybenzyl)-6-methylimidazo[1,5-a]pyrazin-8(7H)-one], the IC50 on PDE1C was 337 nM; against PDE1A, 627 nM; against PDE1B it was 103 nM. In addition, at PDE9, the inhibition at 10 µM is -5%.

In the case of `CCCc1ncc2c(=O)n(CC3CCCCC3)c(C)cn12` [Example 85, 7-(cyclohexylmethyl)-6-methyl-3-propylimidazo[1,5-a]pyrazin-8(7H)-one], the concentration for half-maximal inhibition (IC50) at PDE1C was found to be 32 nM; against PDE1A, 120 nM; at PDE1B, 32 nM. In addition, the inhibition at 10 µM at PDE9 came to 7%.

On to `COc1ccc(Cn2c(C)cn3c(C(C)(C)O)ncc3c2=O)cc1` [Example 86, 3-(2-hydroxypropan-2-yl)-7-(4-methoxybenzyl)-6-methylimidazo[1,5-a]pyrazin-8(7H)-one], for which the results for the concentration for half-maximal inhibition (IC50) on PDE1C, against PDE1A and against PDE1B were 214 nM, 193 nM and 118 nM, respectively. For the same compound, the inhibition at 10 µM at PDE9 is -11%.

With `COc1ccc(Cn2c(C)cn3c(C4CCNC(=O)CC4)ncc3c2=O)cc1` (stereo not drawn) [Example 88, 7-(4-methoxybenzyl)-6-methyl-3-(7-oxoazepan-4-yl)imidazo[1,5-a]pyrazin-8(7H)-one], the IC50 against PDE1C worked out at 548 nM; against PDE1A, 484 nM; at PDE1B, 308 nM. Besides, the inhibition at 10 µM against PDE9 is -32%.

For the compound `COc1ccc(Cn2c(C)cn3c(C4COC(C)C4)ncc3c2=O)cc1` (stereo not drawn) [Example 89, 7-(4-methoxybenzyl)-6-methyl-3-(5-methyltetrahydrofuran-3-yl)imidazo[1,5-a]pyrazin-8(7H)-one], the concentration for half-maximal inhibition (IC50) came to 303 nM against PDE1C and 128 nM at PDE1B. The inhibition at 10 µM against PDE9 came out at 1%; on PDE1A (read-out: PDE1A, % inhibition (at 10 μM)) it was 65%.

Regarding `COc1ccc(Cn2c(C)cn3c(C(C)c4nc(C)cs4)ncc3c2=O)cc1` (stereo not drawn) [Example 90, 7-(4-methoxybenzyl)-6-methyl-3-(1-(4-methylthiazol-2-yl)ethyl)imidazo[1,5-a]pyrazin-8(7H)-one], the 50% inhibitory concentration (IC50) came to 23 nM against PDE1C, 34 nM on PDE1A and 15 nM against PDE1B. Moreover, at PDE9, the inhibition at 10 µM came to 10%.

With `COc1ccc(Cn2c(C)cn3c(C4(C)CCN(S(N)(=O)=O)C4)ncc3c2=O)cc1` (stereo not drawn) [Example 91, 3-(7-(4-methoxybenzyl)-6-methyl-8-oxo-7,8-dihydroimidazo[1,5-a]pyrazin-3-yl)-3-methylpyrrolidine-1-sulfonamide], the concentration for half-maximal inhibition (IC50) amounted to 417 nM against PDE1C, 181 nM against PDE1A and 185 nM on PDE1B. In addition, the inhibition at 10 µM at PDE9 was determined as 20%.

With `COc1ccc(Cn2c(CC3CCCC3)cn3c(C4CCOCC4)ncc3c2=O)cc1` [Example 92, 6-(cyclopentylmethyl)-7-(4-methoxybenzyl)-3-(tetrahydro-2H-pyran-4-yl)imidazo[1,5-a]pyrazin-8(7H)-one], the concentration for half-maximal inhibition (IC50) was determined as 79 nM against PDE1C, 71 nM on PDE1A and 11 nM against PDE1B. The inhibition at 10 µM on PDE9 was 57%.

For `COc1ccc(Cn2c(C)cn3c(N4CCOCC4)ncc3c2=O)cc1` [Example 93, 3-(morpholino)-7-(4-methoxybenzyl)-6-methylimidazo[1,5-a]pyrazin-8(7H)-one], the IC50 against PDE1C was 99 nM; against PDE1A, 96 nM; against PDE1B it was 52 nM. Further, the inhibition at 10 µM on PDE9 is 23%.

With `COc1ccc(Cn2c(C)cn3c(N4CCOC[C@H]4C)ncc3c2=O)cc1` [Example 95, (R)-7-(4-methoxybenzyl)-6-methyl-3-(3-methylmorpholino)imidazo[1,5-a]pyrazin-8(7H)-one], the results for the IC50 on PDE1C, against PDE1A and at PDE1B were 218 nM, 258 nM and 162 nM, respectively. Besides, the inhibition at 10 µM on PDE9 worked out at 9%.

Regarding `COc1ccc(Cn2c(C)cn3c(N4CCCOCC4)ncc3c2=O)cc1` [Example 97, 7-(4-methoxybenzyl)-6-methyl-3-(1,4-oxazepan-4-yl)imidazo[1,5-a]pyrazin-8(7H)-one], the concentration for half-maximal inhibition (IC50) worked out at 128 nM against PDE1C, 202 nM on PDE1A and 82 nM against PDE1B. Further, the inhibition at 10 µM against PDE9 is -8%.

With `COc1ccc(Cn2c(C)cn3c(N4CCOC(C)(C)C4)ncc3c2=O)cc1` [Example 98, 3-(2,2-dimethylmorpholino)-7-(4-methoxybenzyl)-6-methylimidazo[1,5-a]pyrazin-8(7H)-one], the IC50 worked out at 135 nM against PDE1C, 287 nM against PDE1A and 102 nM at PDE1B. For the same compound, the inhibition at 10 µM at PDE9 turned out to be 4%.
